# Data published in US20230101768A1, “METHOD TO TREAT MANGANESE TOXICITY AND MANGANESE-INDUCED PA[…] HUMANS” (priority 2021, published 2023).
# Tests used:
# SLC30A10 [1] = format: cell-based, human; settings: HepG2 cells
# Procedure: (§1) Cells were treated with 0 or 250 μM manganese for 4 h, and gene expression was analyzed by qRT-PCR. For each transcript, expression without manganese treatment was normalized to 1. N=4. Data are mean±SE.
# (§2) Cell culture. HepG2 cells were grown in Eagle's modified essential medium (MEM; Corning) with 10% fetal bovine serum (Atlanta Biologicals), 100 IU/ml penicillin (Corning), and 100 μg/ml streptomycin (Corning). 293T cells were maintained in Dulbecco's modified essential medium/F12 (Thermo) supplemented with 10% fetal bovine serum, penicillin (100 IU/ml), and streptomycin (100 μg/ml). Human primary hepatocytes were purchased from XenoTech (catalog #HPCH10+) and cultured according to protocols provided by the supplier.
# (§3) manganese and drug treatments in cell culture. Cells were treated with indicated levels of manganese as manganeseCl2.4H2O (Fisher). Vehicle for manganese treatment was water. Prolyl hydroxylase inhibitors roxadustat (Caymen), vadadustat, and molidustat (both APE-Bio); the HIFα inhibitor LW6 (Selleckchem); the proteasomal inhibitor MG132 (Sigma); and the transcription inhibitor actinomycin D (Sigma) were dissolved in DMSO. […] Vehicle treatment for all drugs was DMSO.
# (§4) Quantitative RT-PCR assays. RNA extraction from HepG2 cells and mouse tissue, reverse transcription to cDNA, and qRT-PCR analyses were performed as described by us previously (47, 50). For analyses of mouse brain samples, a part of the midbrain, including the basal ganglia, was used. Transcript levels were quantified using the ΔΔCT method with 18S (in mice) or TBP (in HepG2 cells) as the internal control, also as described by us previously (47, 50).
# VEGF = format: cell-based, human; settings: HepG2 cells, 250 μM manganese for 4 h; expression without manganese normalized to 1; mean±SE, N=4
# Procedure: as §1, §2, §3, §4
# DMT1 = settings: HepG2 cells, 250 μM manganese for 4 h; expression without manganese normalized to 1; mean±SE, N=4
# Procedure: as §1, §2, §3, §4
# FPN = settings: HepG2 cells, 250 μM manganese for 4 h; expression without manganese normalized to 1; mean±SE, N=4
# Procedure: as §1, §2, §3, §4
# SLC39A14 [2] = settings: HepG2 cells, 250 μM manganese for 4 h; expression without manganese normalized to 1; mean±SE, N=4
# Procedure: as §1, §2, §3, §4
# SLC39A8 [3] = settings: HepG2 cells, 250 μM manganese for 4 h; expression without manganese normalized to 1; mean±SE, N=4
# Procedure: as §1, §2, §3, §4
# SPCA1 = settings: HepG2 cells, 250 μM manganese for 4 h; expression without manganese normalized to 1; mean±SE, N=4
# Procedure: as §1, §2, §3, §4
# SLC39A14 [4] = settings: oral manganese ~15 mg/kg daily from birth until 8 weeks
# Procedure: (§5) A well-characterized drinking water-based manganese exposure regimen was used to model human environmental manganese exposure by providing mice with ˜50 mg manganeseCl2.4H2O/kg body weight daily (˜15 mg absolute manganese/kg per day) from birth until 8 weeks of age. This, and related similar, dosing regimens: 1) approximate the increase in manganese exposure in humans consuming well water contaminated with 1.5 mg manganese/L, which is the median well water concentration associated with neurological deficits in children; 2) increase brain manganese levels by ˜2-3 fold, similar to human patients; 3) produce measurable neurobehavioral deficits without overt toxicity; and 4) model exposure to manganese in developmentally-sensitive early-life and adolescent periods (11). Pre-weaning manganese was delivered by pipette directly into the mouth, and post-weaning manganese was delivered in drinking water using procedures described in detail in ref. (11). In brief, pre-weaning dosing was adjusted to each animal's body weight. For this, a stock solution of 69.2 mg absolute manganese/ml prepared in milliQ water was diluted in milliQ water containing 2.5% (wt/vol) of the natural sweetener Stevia (to facilitate intake by pups), and the required manganese amount (0.2 μl manganese stock/g body weight) was delivered in a dose of ˜5-10 μl/animal. For post-weaning exposure, a 27.7 mg absolute manganese/ml stock solution was prepared in water and diluted to 0.069 mg absolute manganese/ml in drinking water, which provided mice with ˜15 mg absolute manganese/kg per day based on a daily water intake of ˜2-5 ml/mouse depending on age.
# (§6) Animals were euthanized using carbon dioxide and tissue dissected for qRT-PCR or ICPMS analyses as described by us previously (50).
# as §4
# SLC39A8 [5] = settings: oral manganese ~15 mg/kg daily from birth until 8 weeks
# Procedure: as §5, §6, §4
# C57BL/6J mice = settings: C57BL/6J mice, open field 6-15 min interval, ~30 mg manganese/kg daily in drinking water, 4 weeks
# Procedure: To assay for the protective effect of roxadustat, animals were exposed to roxadustat or vehicle with or without manganese in drinking water from ˜4 weeks of age. Treatment lasted for 4 weeks from initiation. Roxadustat (Selleckchem) was prepared as a 50 mg/ml stock solution in DMSO, then diluted to 1 mg/ml in sterile phosphate buffered saline (PBS), and delivered by daily i.p. injection at 10 mg/kg. Vehicle was 2% DMSO in PBS. For this experiment, drinking water manganese levels were adjusted to 0.138 mg absolute manganese/ml so that animals received ˜30 mg absolute manganese/kg daily. A higher level of manganese was used because exposure was initiated after weaning, which was necessary because daily i.p. injections for roxadustat delivery were not possible in the pre-weaning period.
# Open-field assays for neurobehavior assessment. Open-field analyses were performed as described in a recent publication (51).
# SLC30A10 [6] = settings: HepG2 cells, 250 μM manganese, immunoblot
# Procedure: Immunoblots. HepG2 cells were cultured in 35 mm dishes, treated with or without manganese, MG132 and/or prolyl hydroxylase inhibitors, and scrapped using 200 μl of RIPA buffer (50 mM Tris-HCl, pH7.4; 150 mM NaCl; 1Mm EDTA; 1% Triton; 0.25% sodium deoxycholate; protease inhibitors cocktail (Thermo A32953)). Whole-cell lysates were prepared by adding loading buffer (50 mM Tris-HCl, pH 7.4; 2% sodium dodecyl sulfate; 10% glycerol, 0.1 M dithiothreitol; 0.01% (weight/volume) bromophenol blue) and boiling the samples for 5 min. Equal volumes of samples were loaded per lane. Further processing was as described by us previously (47). Images were quantified using ImageQuant TL software (GE).
# Antibodies and chemicals. The inventors used the following commercial primary antibodies in this study: rabbit polyclonal anti-HIF1α (Abcam, Ab2185), rabbit polyclonal anti-HIF2α (Novus, NB100-122), rabbit monoclonal anti-HIF1α proline 564 (Cell signaling, 3434S), and mouse monoclonal anti-tubulin (Sigma, T5168). […] Sources of chemicals not provided elsewhere were Thermo Fisher Scientific or Sigma-Aldrich.
# [7] = system: prolyl hydroxylase domain 2 (PHD2); settings: HepG2 cells, 250 μM manganese
# Procedure: as §4
smiles,measurement,setting,value
"O.O.O.O.[Cl][Mn][Cl] [manganese, manganeseCl2.4H2O]","Relative expression after manganese, SLC30A10 transcript","SLC30A10 [1]; 250 μM manganese for 4 h, expression without manganese normalized to 1, mean±SE, N=4",2.40 ± 0.28
same,Time at which SLC30A10 levels returned to baseline,"SLC30A10 [1]; 250 μM manganese, time course",≤ 24 h
same,Time to statistically significant increase of SLC30A10,"SLC30A10 [1]; 250 μM manganese, time course",≤ 2 h
same,Lowest manganese level at which SLC30A10 levels were elevated,"SLC30A10 [1]; dose response, 4 h",62.5 µM
same,"Relative expression after manganese, VEGF transcript",VEGF,2.41 ± 0.29
same,"Relative expression after manganese, DMT1 transcript",DMT1,0.92 ± 0.03
same,"Relative expression after manganese, FPN transcript",FPN,0.77 ± 0.21
same,"Relative expression after manganese, SLC39A14 transcript",SLC39A14 [2],0.71 ± 0.02
same,"Relative expression after manganese, SLC39A8 transcript",SLC39A8 [3],0.87 ± 0.09
same,"Relative expression after manganese, SPCA1 transcript",SPCA1,1.00 ± 0.05
same,Hepatic and brain SLC39A14 levels,SLC39A14 [4]; 129S4/SvJaeJ mice,elevated
same,Intestinal SLC39A14 levels,SLC39A14 [4]; C57BL/6J mice,enhanced
same,Hepatic and brain SLC39A8 levels,SLC39A8 [5]; 129S4/SvJaeJ mice,elevated
same,Intestinal SLC39A8 levels,SLC39A8 [5]; either strain,did not change
same,"Vertical (rearing) movement versus vehicle-treated controls, manganese-only",C57BL/6J mice,reduced
same,SLC30A10 protein levels after manganese,SLC30A10 [6],increased
same,PHD2 levels in manganese-treated cells,[7],elevated
